Experimental data taken from patent US12077503B2, “Substituted cyclic amides and their use as herbicides” (FMC CORPORATION, priority 2015, dated 2024).

Legend:
Format in all cases: in vivo
[1] = system: sedge, umbrella (small-flower umbrella sedge, Cyperus difformis); test: Test B flooded paddy test; conditions: Cyperus difformis, 250 g ai/ha, Flood; 0 to 100 scale where 0 is no effect and 100 is complete control; read-out: Sedge, Umbrella plant response rating
Outline: (§1)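 Compound goes directly into floodwater once pots are flooded 3 cm above soil, targeting plants at two leaves; the water depth is then held for the test duration. Plants sit 13–15 d in a greenhouse and are rated visually, 100 denoting complete control.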

[2] = system: barnyardgrass (Echinochloa crus-galli); test: Test B flooded paddy test; conditions: Echinochloa crus-galli, 250 g ai/ha, Flood; 0 to 100 scale where 0 is no effect and 100 is complete control; read-out: Barnyardgrass plant response rating
Outline: as §1

[3] = system: rice (Oryra sativa); test: Test B flooded paddy test; conditions: Oryza sativa, 250 g ai/ha, Flood; 0 to 100 scale where 0 is no effect and 100 is complete control; read-out: Rice plant response rating
Outline: as §1

[4] = system: ducksalad (Heteranthera limosa); test: Test B flooded paddy test; conditions: Heteranthera limosa, 250 g ai/ha, Flood; 0 to 100 scale where 0 is no effect and 100 is complete control; read-out: Ducksalad plant response rating
Outline: as §1

[5] = system: ragweed (common ragweed, Ambrosia elatior); test: Test A postemergence; conditions: Ambrosia artemisiifolia, post-emergence, 240 h; for pest or weed control at 125 g/ha: 125 g ai/ha, postemergence, visual injury on 0 to 100 scale (0 no effect, 100 complete control), approx. 10 d, read-out: Ragweed plant response rating; for pest or weed control at 31 g/ha: Postemergence, 31 g ai/ha, visual injury after approx. 10 d, 0 to 100 scale, 0 no effect, 100 complete control, read-out: Plant response rating, Ragweed
Outline: (§2)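 Each rating is a visual injury score from 0 to 100 given about 10 d after treatment, judged against untreated controls kept alongside in the greenhouse. In loam soil–sand blend, seeds got a preemergence directed soil spray, while postemergence plants were 2 to 10 cm tall at spraying.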

[6] = system: barnyardgrass (Echinochloa crus-galli); test: Test A postemergence; conditions: Echinochloa crus-galli, post-emergence, 240 h; for pest or weed control at 125 g/ha: 125 g ai/ha, postemergence, visual injury on 0 to 100 scale (0 no effect, 100 complete control), approx. 10 d, read-out: Barnyardgrass plant response rating; for pest or weed control at 31 g/ha: Postemergence, 31 g ai/ha, visual injury after approx. 10 d, 0 to 100 scale, 0 no effect, 100 complete control, read-out: Plant response rating, Barnyardgrass
Outline: as §2

[7] = system: Kochia (Kochia scoparia); test: Test A postemergence; conditions: Bassia scoparia, post-emergence, 240 h; for pest or weed control at 125 g/ha: 125 g ai/ha, postemergence, visual injury on 0 to 100 scale (0 no effect, 100 complete control), approx. 10 d, read-out: Kochia plant response rating; for pest or weed control at 31 g/ha: Postemergence, 31 g ai/ha, visual injury after approx. 10 d, 0 to 100 scale, 0 no effect, 100 complete control, read-out: Plant response rating, Kochia
Outline: as §2

[8] = system: corn (Zea mays); test: Test A postemergence; conditions: Zea mays, post-emergence, 240 h; for plant injury at 125 g/ha: 125 g ai/ha, postemergence, visual injury on 0 to 100 scale (0 no effect, 100 complete control), approx. 10 d, read-out: Corn plant response rating; for Corn plant response rating (crop injury, 0 = no effect, 100 = complete kill) at 31 g/ha: Postemergence, 31 g ai/ha, visual injury after approx. 10 d, 0 to 100 scale, 100 complete control
Outline: as §2

[9] = system: Galium (catchweed bedstraw, Galium aparine); test: Test A postemergence; conditions: Galium, post-emergence, 240 h; for pest or weed control at 125 g/ha: 125 g ai/ha, postemergence, visual injury on 0 to 100 scale (0 no effect, 100 complete control), approx. 10 d, read-out: Galium plant response rating; for pest or weed control at 31 g/ha: Postemergence, 31 g ai/ha, visual injury after approx. 10 d, 0 to 100 scale, 0 no effect, 100 complete control, read-out: Plant response rating, Galium
Outline: as §2

[10] = system: ryegrass, Italian (Italian ryegrass, Lolium multiflorum); test: Test A postemergence; conditions: Lolium multiflorum, post-emergence, 240 h; for pest or weed control at 125 g/ha: 125 g ai/ha, postemergence, visual injury on 0 to 100 scale (0 no effect, 100 complete control), approx. 10 d, read-out: Ryegrass, Italian plant response rating; for pest or weed control at 31 g/ha: Postemergence, 31 g ai/ha, visual injury after approx. 10 d, 0 to 100 scale, 0 no effect, 100 complete control, read-out: Plant response rating, Ryegrass, Italian
Outline: as §2

[11] = system: pigweed (Amaranthus retroflexus); test: Test A postemergence; conditions: Amaranthus retroflexus, post-emergence, 240 h; for pest or weed control at 125 g/ha: 125 g ai/ha, postemergence, visual injury on 0 to 100 scale (0 no effect, 100 complete control), approx. 10 d, read-out: Pigweed plant response rating; for pest or weed control at 31 g/ha: Postemergence, 31 g ai/ha, visual injury after approx. 10 d, 0 to 100 scale, 0 no effect, 100 complete control, read-out: Plant response rating, Pigweed
Outline: as §2

[12] = system: wheat (Triticum aestivum); test: Test A postemergence; conditions: Triticum aestivum, post-emergence, 240 h; for plant injury at 125 g/ha: 125 g ai/ha, postemergence, visual injury on 0 to 100 scale (0 no effect, 100 complete control), approx. 10 d, read-out: Wheat plant response rating; for plant injury at 31 g/ha: Postemergence, 31 g ai/ha, visual injury after approx. 10 d, 0 to 100 scale, 0 no effect, 100 complete control, read-out: Plant response rating, Wheat
Outline: as §2

[13] = system: blackgrass (Alopecurus myosuroides); test: Test A postemergence; conditions: Alopecurus myosuroides, post-emergence, 240 h; for pest or weed control at 125 g/ha: 125 g ai/ha, postemergence, visual injury on 0 to 100 scale (0 no effect, 100 complete control), approx. 10 d, read-out: Blackgrass plant response rating; for pest or weed control at 31 g/ha: Postemergence, 31 g ai/ha, visual injury after approx. 10 d, 0 to 100 scale, 0 no effect, 100 complete control, read-out: Plant response rating, Blackgrass
Outline: as §2

[14] = system: giant foxtail (Setaria faberii); test: Test A postemergence; conditions: Setaria faberi, post-emergence, 240 h; for pest or weed control at 125 g/ha: 125 g ai/ha, postemergence, visual injury on 0 to 100 scale (0 no effect, 100 complete control), approx. 10 d, read-out: Foxtail, Giant plant response rating; for pest or weed control at 31 g/ha: Postemergence, 31 g ai/ha, visual injury after approx. 10 d, 0 to 100 scale, 0 no effect, 100 complete control, read-out: Plant response rating, Foxtail, Giant
Outline: as §2

[15] = system: ragweed (common ragweed, Ambrosia elatior); test: Test A preemergence; conditions: Ambrosia artemisiifolia, pre-emergence, 240 h, 0 to 100 scale where 0 is no effect and 100 is complete control, read-out: Ragweed plant response rating; for pest or weed control at 31 g/ha: 31 g ai/ha, Preemergence; for pest or weed control at 125 g/ha: 125 g ai/ha, preemergence, approx. 10 d
Outline: as §2

[16] = system: barnyardgrass (Echinochloa crus-galli); test: Test A preemergence; conditions: Echinochloa crus-galli, pre-emergence, 240 h, Preemergence; for pest or weed control at 31 g/ha: 31 g ai/ha, 0 to 100 scale where 0 is no effect and 100 is complete control, read-out: Barnyardgrass plant response rating; for pest or weed control at 125 g/ha: 125 g ai/ha, visual injury rating after approximately 10 d, read-out: Barnyardgrass plant response rating (0 to 100 scale, 0 is no effect, 100 is complete control)
Outline: as §2

[17] = system: Kochia (Kochia scoparia); test: Test A preemergence; conditions: Bassia scoparia, pre-emergence, 240 h, 0 to 100 scale where 0 is no effect and 100 is complete control, read-out: Kochia plant response rating; for pest or weed control at 31 g/ha: 31 g ai/ha, Preemergence; for pest or weed control at 125 g/ha: 125 g ai/ha, preemergence, approx. 10 d
Outline: as §2

[18] = system: ryegrass, Italian (Italian ryegrass, Lolium multiflorum); test: Test A preemergence; conditions: Lolium multiflorum, pre-emergence, 240 h, 0 to 100 scale where 0 is no effect and 100 is complete control, read-out: Ryegrass, Italian plant response rating; for pest or weed control at 31 g/ha: 31 g ai/ha, Preemergence; for pest or weed control at 125 g/ha: 125 g ai/ha, preemergence, approx. 10 d
Outline: as §2

[19] = system: pigweed (Amaranthus retroflexus); test: Test A preemergence; conditions: Amaranthus retroflexus, pre-emergence, 240 h, 0 to 100 scale where 0 is no effect and 100 is complete control, read-out: Pigweed plant response rating; for pest or weed control at 31 g/ha: 31 g ai/ha, Preemergence; for pest or weed control at 125 g/ha: 125 g ai/ha, preemergence, approx. 10 d
[20] = system: giant foxtail (Setaria faberii); test: Test A preemergence; conditions: Setaria faberi, pre-emergence, 240 h, Preemergence; for pest or weed control at 31 g/ha: 31 g ai/ha, 0 to 100 scale where 0 is no effect and 100 is complete control, read-out: Foxtail, Giant plant response rating; for pest or weed control at 125 g/ha: 125 g ai/ha, visual injury rating after approximately 10 d, read-out: Foxtail, Giant plant response rating (0 to 100 scale, 0 is no effect, 100 is complete control)
Outline: as §2

SMILES	pest or weed control at 250 g/ha [1] [%]	pest or weed control at 250 g/ha [2] [%]	pest or weed control at 250 g/ha [3] [%]	pest or weed control at 250 g/ha [4] [%]	pest or weed control at 125 g/ha [5] [%]	pest or weed control at 31 g/ha [5] [%]	pest or weed control at 125 g/ha [6] [%]	pest or weed control at 31 g/ha [6] [%]	pest or weed control at 125 g/ha [7] [%]	pest or weed control at 31 g/ha [7] [%]	plant injury at 125 g/ha [8] [%]	Corn plant response rating (crop injury, 0 = no effect, 100 = complete kill) at 31 g/ha [8] [%]	pest or weed control at 125 g/ha [9] [%]	pest or weed control at 31 g/ha [9] [%]	pest or weed control at 125 g/ha [10] [%]	pest or weed control at 31 g/ha [10] [%]	pest or weed control at 125 g/ha [11] [%]	pest or weed control at 31 g/ha [11] [%]	plant injury at 125 g/ha [12] [%]	plant injury at 31 g/ha [12] [%]	further results
CN1C[C@H](c2ccc(C(F)(F)F)cc2)[C@@H](C(=O)Nc2cnccc2C(F)(F)F)C1=O [Compound 1065]	0	0	0	100	0	0	40	0	40	0	20	0	70	40	40	0	40	0	20	0	pest or weed control at 125 g/ha [13]: 50%; pest or weed control at 31 g/ha [13]: 0%; pest or weed control at 125 g/ha [14]: 70%; pest or weed control at 31 g/ha [14]: 0%; pest or weed control at 31 g/ha [15]: 0%; pest or weed control at 125 g/ha [15]: 0%; pest or weed control at 31 g/ha [16]: 0%; pest or weed control at 125 g/ha [16]: 70%; pest or weed control at 31 g/ha [17]: 0%; pest or weed control at 125 g/ha [17]: 70%; pest or weed control at 31 g/ha [18]: 0%; pest or weed control at 125 g/ha [18]: 30%; pest or weed control at 31 g/ha [19]: 30%; pest or weed control at 125 g/ha [19]: 70%; pest or weed control at 31 g/ha [20]: 90%; pest or weed control at 125 g/ha [20]: 100%
CN1C[C@H](c2cccc(C(F)(F)F)c2)[C@@H](C(=O)Nc2cnccc2C(F)(F)F)C1=O [Compound 1066]	0	45	0	75	0	0	70	50	0	0	40	0	50	0	30	30	0	0	50	0	pest or weed control at 125 g/ha [13]: 60%; pest or weed control at 31 g/ha [13]: 0%; pest or weed control at 125 g/ha [14]: 90%; pest or weed control at 31 g/ha [14]: 70%; pest or weed control at 31 g/ha [15]: 0%; pest or weed control at 125 g/ha [15]: 0%; pest or weed control at 31 g/ha [16]: 50%; pest or weed control at 125 g/ha [16]: 100%; pest or weed control at 31 g/ha [17]: 0%; pest or weed control at 125 g/ha [17]: 20%; pest or weed control at 31 g/ha [18]: 20%; pest or weed control at 125 g/ha [18]: 50%; pest or weed control at 31 g/ha [19]: 0%; pest or weed control at 125 g/ha [19]: 20%; pest or weed control at 31 g/ha [20]: 100%; pest or weed control at 125 g/ha [20]: 100%
